Measurements published in patent US9255100B2 (BAYER INTELLECTUAL PROPERTY GMBH, priority 2010, dated 2016).
Where two headings read alike, the source gives them in different places.

Target: T1, N-terminally GST-tagged human full length recombinant Mps-1 kinase (Homo sapiens, UniProt P33981)
T1 construct: N-terminally GST-tagged human full length recombinant Mps-1 kinase; purchased Invitrogen, Karslruhe, Germany PV4071
T1 sequence (P33981 1-857): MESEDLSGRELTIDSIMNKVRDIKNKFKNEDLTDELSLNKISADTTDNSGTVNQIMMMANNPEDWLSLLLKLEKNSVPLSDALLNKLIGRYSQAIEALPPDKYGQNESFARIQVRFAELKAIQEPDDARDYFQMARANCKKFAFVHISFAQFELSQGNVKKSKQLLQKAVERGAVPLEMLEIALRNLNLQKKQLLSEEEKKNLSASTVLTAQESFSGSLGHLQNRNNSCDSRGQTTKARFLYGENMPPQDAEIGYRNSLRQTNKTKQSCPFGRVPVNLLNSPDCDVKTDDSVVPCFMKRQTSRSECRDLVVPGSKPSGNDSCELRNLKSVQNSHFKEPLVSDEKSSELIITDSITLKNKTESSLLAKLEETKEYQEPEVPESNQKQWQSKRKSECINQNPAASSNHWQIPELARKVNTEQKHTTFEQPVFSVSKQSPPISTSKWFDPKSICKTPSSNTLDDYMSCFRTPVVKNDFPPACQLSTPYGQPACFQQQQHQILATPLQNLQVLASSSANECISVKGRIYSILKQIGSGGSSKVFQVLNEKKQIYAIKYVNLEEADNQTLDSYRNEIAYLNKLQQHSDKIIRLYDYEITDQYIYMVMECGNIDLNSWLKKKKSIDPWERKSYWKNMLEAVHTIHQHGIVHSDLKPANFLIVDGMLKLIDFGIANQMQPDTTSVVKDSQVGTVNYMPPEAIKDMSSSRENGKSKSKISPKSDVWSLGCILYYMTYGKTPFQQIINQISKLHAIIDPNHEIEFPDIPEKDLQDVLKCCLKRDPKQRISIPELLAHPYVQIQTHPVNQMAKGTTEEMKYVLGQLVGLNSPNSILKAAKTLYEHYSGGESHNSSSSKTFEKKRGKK
Test: Mps-1 kinase assay (TR-FRET)
Type: biochemical
Details: 10 μM ATP, 1 μM peptide substrate, 60 min at 22° C.
Method: The human kinase Mps-1 phosphorylates a biotinylated substrate peptide. Detection of the phosphorylated product is achieved by time-resolved fluorescence resonance energy transfer (TR-FRET) from Europium-labelled anti-phospho-Serine/Threonine antibody as donor to streptavidin labelled with cross-linked allophycocyanin (SA-XLent) as acceptor. Compounds are tested for their inhibition of the kinase activity.
N-terminally GST-tagged human full length recombinant Mps-1 kinase (purchased from Invitrogen, Karslruhe, Germany, cat. no PV4071) was used. As substrate for the kinase reaction a biotinylated peptide of the amino-acid sequence […] (C-terminus in amide form, purchased from Biosynthan GmbH, Berlin) was used.
The concentration of Mps-1 in the assay was adjusted to the activity of the enzyme lot and was chosen appropriate to have the assay in the linear range, typical enzyme concentrations were in the range of about 1 nM (final conc. in the 5 μl assay volume).
The resulting mixture was incubated 1 h at 22° C. to allow the binding of the phosphorylated peptide to the anti-phospho(Ser/Thr)-Europium-antibody. Subsequently the amount of phosphorylated substrate was evaluated by measurement of the resonance energy transfer from the Europium-labelled anti-phospho(Ser/Thr) antibody to the Streptavidin-XLent.

SMILES	IC50 (Mps1 IC50 [nM]) [nM]	IC50 (read-out: Mps1 IC50) [nM]
CC(C)CNc1cc(-c2ccc3c(c2)OCO3)nn2c(-c3ccc(C(=O)NC4CC4)cc3)cnc12 [Example 136, 4-{6-(1,3-Benzodioxol-5-yl)-8-[(2-methylpropyl)amino]imidazo[1,2-b]pyridazin-3-yl}-N-cyclopropylbenzamide]	4	
C/C=C/c1cc(NCCC(F)(F)F)c2ncc(-c3ccc(-c4cnc(C5CC5)[nH]4)cc3)n2n1 [Example 16, 3-[4-(2-Cyclopropyl-1H-imidazol-5-yl)phenyl]-6-[(1E)-prop-1-en-1-yl]-N-(3,3,3-trifluoropropyl)imidazo[1,2-b]pyridazin-8-amine]	27.3	
Cc1cc(-c2cnc3c(NCC4CN(C)CCO4)cc(-c4ccc(F)cc4)nn23)ccc1C(=O)NC1CC1 (racemic) [Example 229, (RS)—N-cyclopropyl-4-[6-(4-fluorophenyl)-8-{[(4-methylmorpholin-2-yl)methyl]amino}imidazo[1,2-b]pyridazin-3-yl]-2-methylbenzamide]	2.6	
CNC(=O)Nc1ccc(-c2cc(NCC(C)C)c3ncc(-c4ccc(C(=O)NC5CC5)cc4)n3n2)cc1 [Example 146, N-cyclopropyl-4-(6-{4-[(methylcarbamoyl)amino]phenyl}-8-[(2-methylpropyl)amino]imidazo[1,2-b]pyridazin-3-yl)benzamide]	3.8	
Cc1cccc(-c2cc(NCC(C)C)c3ncc(-c4ccc(C(=O)NC5CC5)cc4)n3n2)c1 [Example 105, N-cyclopropyl-4-{6-(3-methylphenyl)-8-[(2-methylpropyl)amino]imidazo[1,2-b]pyridazin-3-yl}benzamide]	3.5	
Cc1cc(-c2cnc3c(NCC4CC[S+]([O-])CC4)cc(Oc4cccc(F)c4)nn23)ccc1C(=O)NC1CC1 (mixture of isomers) [Example 298B, N-cyclopropyl-4-[6-(3-fluorophenoxy)-8-({[(cis/trans)-1-oxidotetrahydro-2H-thiopyran-4-yl]methyl}amino)imidazo[1,2-b]pyridazin-3-yl]-2-methylbenzamide]		0.1
Cc1cc(-c2cnc3c(NCC4CC[S+]([O-])CC4)cc(Sc4ccccc4)nn23)ccc1C(=O)NC1CC1 (stereo not drawn) [Example 303B, N-cyclopropyl-2-methyl-4-[8-({[(trans)-1-oxidotetrahydro-2H-thiopyran-4-yl]methyl}amino)-6-(phenylsulfanyl)imidazo[1,2-b]pyridazin-3-yl]benzamide]		0.2
COc1ccc(Sc2cc(NCCC(F)(F)F)c3ncc(-c4ccc(C(=O)NC5CC5)c(C)c4)n3n2)cc1 [Example 227, N-cyclopropyl-4-{6-[(4-methoxyphenyl)sulfanyl]-8-[(3,3,3-trifluoropropyl)amino]imidazo[1,2-b]pyridazin-3-yl}-2-methylbenzamide]	0.2	
CC(C)CNc1cc(Cl)nn2c(-c3ccc(C(N)=O)cc3)cnc12 [Example 176, 4-{6-Chloro-8-[(2-methylpropyl)amino]imidazo[1,2-b]pyridazin-3-yl}benzamide]	465	
Cc1cc(-c2cnc3c(NCCC(F)(F)F)cc(Sc4ccccc4F)nn23)ccc1C(=O)NC1CC1 [Example 268, N-cyclopropyl-4-{6-[(2-fluorophenyl)sulfanyl]-8-[(3,3,3-trifluoropropyl)amino]imidazo[1,2-b]pyridazin-3-yl}-2-methylbenzamide]	0.2	
Cc1cc(-c2cnc3c(NCCC(F)(F)F)cc(Oc4cccnc4)nn23)ccc1C(=O)NC1CC1 [Example 174, N-cyclopropyl-2-methyl-4-{6-(pyridin-3-yloxy)-8-[(3,3,3-trifluoro-propyl)amino]imidazo[1,2-b]pyridazin-3-yl}benzamide]	< 0.1	

Further lines, with some results ahead:

IC50 (Mps1 IC50 [nM]) [nM]	SMILES	IC50 (read-out: Mps1 IC50) [nM]
0.2	Cc1cc(-c2cnc3c(NCC4CCSCC4)cc(Sc4ccccc4O)nn23)ccc1C(=O)NC1CC1 [Example 289, N-cyclopropyl-4-{6-[(2-hydroxyphenyl)sulfanyl]-8-[(tetrahydro-2H-thiopyran-4-ylmethyl)amino]imidazo[1,2-b]pyridazin-3-yl}-2-methylbenzamide]	
30	Cc1cc(-c2cnc3c(NCC(C)(C)O)cc(Sc4ccccn4)nn23)ccc1C(=O)NC1CC1 [Example 334, N-cyclopropyl-4-{8-[(2-hydroxy-2-methylpropyl)amino]-6-(pyridin-2-yl-sulfanyl)imidazo[1,2-b]pyridazin-3-yl}-2-methyl-benzamide]	
2.9	CCNC(=O)c1ccc(-c2cnc3c(NCCOC)cc(Oc4cc(F)ccc4C)nn23)cc1C [Example 609, N-ethyl-4-{6-(5-fluoro-2-methylphenoxy)-8-[(2-methoxyethyl)a-mino]imidazo[1,2-b]pyridazin-3-yl}-2-methylbenzamide]	
0.4	Cc1cc(F)cc(Oc2cc(NCC3CCSCC3)c3ncc(-c4ccc(C(=O)NC5CC5)c(C)c4)n3n2)c1 [Example 282, N-cyclopropyl-4-{6-(3-fluoro-5-methylphenoxy)-8-[(tetrahydro-2H-thiopyran-4-ylmethyl)amino]imidazo[1,2-b]pyridazin-3-yl}-2-methylbenzamide]	
9	CCNC(=O)c1ccc(-c2cnc3c(NCCN4CCOCC4)cc(Oc4ccccc4)nn23)cc1C [Example 593, N-ethyl-2-methyl-4-(8-{[2-(morpholin-4-yl)ethyl]amino}-6-phenoxyimidazo[1,2-b]pyridazin-3-yl)benzamide]	
0.3	Cc1ccc(F)c(Nc2cc(NCC(C)(C)O)c3ncc(-c4ccc(C(=O)NC5CC5)c(C)c4)n3n2)c1 [Example 383, N-cyclopropyl-4-{6-[(2-fluoro-5-methylphenyl)amino]-8-[(2-hydroxy-2-methylpropyl)amino]imidazo[1,2-b]pyridazin-3-yl}-2-methylbenzamide]	
0.5	Cc1cc(-c2cnc3c(NCC4CCS(=O)(=O)CC4)cc(Oc4cccnc4)nn23)ccc1C(=O)NC1CC1 [Example 296A, N-cyclopropyl-4-[8-{[(1,1-dioxidotetrahydro-2H-thiopyran-4-yl)methyl]amino}-6-(pyridin-3-yloxy)imidazo[1,2-b]pyridazin-3-yl]-2-methylbenzamide]	
0.2	Cc1ccc(F)cc1Oc1cc(NCCS(C)(=O)=O)c2ncc(-c3ccc(C(=O)NC4CC4)c(C)c3)n2n1 [Example 517, N-cyclopropyl-4-[6-(5-fluoro-2-methylphenoxy)-8-{[2-(methylsulfonyl)ethyl]amino}imidazo [1,2-b]pyridazin-3-yl]-2-methylbenzamide]	
0.1	Cc1cc(-c2cnc3c(NCCN4CCN(C)CC4)cc(Oc4cccc(F)c4)nn23)ccc1C(=O)NC1CC1 [Example 501, N-cyclopropyl-4-[6-(3-fluoro-phenoxy)-8-{[2-(4-methyl-piperazin-1-yl)ethyl]amino}imidazo[1,2-b]pyridazin-3-yl]-2-methylbenzamide]	
3.6	Cc1cc(-c2cnc3c(NCC(C)(C)O)cc(SC4CCOCC4)nn23)ccc1C(=O)NC1CC1 [Example 335, N-cyclopropyl-4-{8-[(2-hydroxy-2-methylpropyl)amino]-6-(tetrahydro-2H-pyran-4-ylsulfanyl)imidazo[1,2-b]pyridazin-3-yl}-2-methylbenzamide]	
0.5	Cc1cc(-c2cnc3c(NCCC(F)(F)F)cc(Oc4cccc(C(C)C)c4O)nn23)ccc1C(=O)NC1CC1 [Example 441, N-cyclopropyl-4-{6-[2-hydroxy-3-(propan-2-yl)phenoxy]-8-[(3,3,3-trifluoropropyl)amino]imidazo[1,2-b]pyridazin-3-yl}-2-methylbenzamide]	
26.8	Cc1cc(-c2cnc3c(NCC(C)(C)O)cc(Oc4ccncc4)nn23)ccc1C(=O)NC1CC1 [Example 332, N-cyclopropyl-4-{8-[(2-hydroxy-2-methylpropyl)amino]-6-(pyridin-4-yl-oxy)imidazo[1,2-b]pyridazin-3-yl}-2-methylbenzamide]	
0.1	COc1ccc(Nc2cc(NCCC(F)(F)F)c3ncc(-c4ccc(C(=O)NC5CC5)c(C)c4)n3n2)cn1 [Example 429, N-cyclopropyl-4-{6-[(6-methoxypyridin-3-yl)amino]-8-[(3,3,3-trifluoropropyl)amino]imidazo[1,2-b]pyridazin-3-yl}-2-methylbenzamide]	
